System: SW480 cells
Assay: cDNA microarray analysis (Clontech Atlas Human Cancer 1.2 Array) of SW480 cells
Conditions: 25 μM; for Ratio, fos-related antigen (FRA1): gene code A13c; for Ratio, epidermal growth factor receptor (EGFR): gene code A12d; for Ratio, placental calcium-binding protein; calvasculin: gene code B07l; for Ratio, proliferating cyclic nuclear antigen (PCNA); cyclin: gene code C13e; for Ratio, growth arrest &DNA-damage-inducible protein 153 (GADD153): gene code C05d; for Ratio, integrin alpha 3 (ITGA3); galactoprotein B3 (GAPB3): gene code D03e; for Ratio, low-affinity nerve growth factor receptor (NGF receptor; NGFR): gene code D03k; for Ratio, histone H4: gene code D08b; for Ratio, nuclear protein: gene code D09b; for Ratio, interleukin-1 beta precursor (IL-1; IL1B); catabolin: gene code E07f; for Ratio, macrophage inhibitory cytokine 1 (MIC1): gene code E09e; for Ratio, neutrophil gelatinase-associated lipocalin precursor (NGAL): gene code F04i; for Ratio, early growth response alpha (EGR alpha): gene code F06n; for Ratio, gravin: gene code F09g; for Ratio, glycyl tRNA synthetase: gene code F13k

## O=C1C(Cc2ccc(O)cc2)N2C(=O)CCN(C(=O)NCc3ccccc3)C2CN1Cc1cccc2ccccc12 (stereo not shown) [COMPOUND 1]
8-hour treatment, […]
  Ratio, WSL protein + TRAMP + Apo-3 + death domain receptor 3 (DDR3): 1.84
  Ratio, integrin beta 4 (ITGB4); CD104 antigen: 1.84
8-hour treatment, gene code A05i
  Ratio, G2/mitotic-specific cyclin B1 (CCNB1): 0.57
8-hour treatment, gene code A10f
  Ratio, matrix metalloproteinase 11 (MMP11); stromelysin 3: 0.77
8-hour treatment
  Ratio, fos-related antigen (FRA1): 2.48
  Ratio, epidermal growth factor receptor (EGFR): 4.20
  Ratio, placental calcium-binding protein; calvasculin: 0.85
  Ratio, proliferating cyclic nuclear antigen (PCNA); cyclin: 0.38
  Ratio, growth arrest &DNA-damage-inducible protein 153 (GADD153): 6.92
  Ratio, integrin alpha 3 (ITGA3); galactoprotein B3 (GAPB3): 2.82
  Ratio, low-affinity nerve growth factor receptor (NGF receptor; NGFR): 1.77
  Ratio, histone H4: 0.73
  Ratio, nuclear protein: 2.11
  Ratio, interleukin-1 beta precursor (IL-1; IL1B); catabolin: 1.77
  Ratio, macrophage inhibitory cytokine 1 (MIC1): 6.94
  Ratio, neutrophil gelatinase-associated lipocalin precursor (NGAL): 5.85
  Ratio, early growth response alpha (EGR alpha): 3.15
  Ratio, gravin: 6.40
  Ratio, glycyl tRNA synthetase: 2.23
8-hour treatment, gene code A14n
  Ratio, brain glucose transporter 3 (GTR3): 1.94
8-hour treatment, gene code A14d
  Ratio, ERBB-3 receptor protein-tyrosine kinase precursor: 1.36
8-hour treatment, gene code B01m
  Ratio, linker for activation of T-cells (LAT): 0.74
8-hour treatment, gene code B12j
  Ratio, ras-related C3 botulinum toxin substrate 2; p21-rac2: 0.62
8-hour treatment, gene code B14n
  Ratio, retinoic acid receptor beta (RXR-beta; RXRB): 0.74
8-hour treatment, gene code B08h
  Ratio, PTPCAAX1 nuclear tyrosine phosphatase (PRL-1): 2.56
8-hour treatment, gene code C06f
  Ratio, MCM4 DNA replication licensing factor; CDC21 homolog: 0.38
8-hour treatment, gene code C09i
  Ratio, growth arrest &DNA-damage-inducible protein (GADD45): 5.36
8-hour treatment, gene code D03b
  Ratio, DNA-binding protein CPBP: 1.47
8-hour treatment, gene code D08e
  Ratio, integrin alpha 7B precursor (IGA7B): 1.69
8-hour treatment, gene code D08f
  Ratio, paxillin: 2.14
8-hour treatment, gene code D11c
  Ratio, T-cell surface glycoprotein CD3 epsilon subunit precursor: 0.60
8-hour treatment, gene code E01g
  Ratio, interleukin-13 precursor (IL-13); NC30: 0.88
8-hour treatment, gene code E03d
  Ratio, nerve growth factor-inducible PC4 homolog: 3.27
8-hour treatment, gene code F05e
  Ratio, ornithine decarboxylase: 1.82
8-hour treatment, gene code F07e
  Ratio, ribonucleoside-diphosphate reductase M2 subunit: 0.53
8-hour treatment, gene code F08f
  Ratio, type I cytoskeletal 18 keratin; cytokeratin 18 (K18): 1.59
24-hour treatment, gene code A01c
  Ratio, proto-oncogene c-jun; transcription factor AP-1: 1.34
24-hour treatment, gene code A02b
  Ratio, EB1 protein: 0.52
24-hour treatment, gene code A03g
  Ratio, c-myc binding protein MM-1: 0.43
24-hour treatment, gene code A06i
  Ratio, G1/S-specific cyclin D1 (CCND1); cyclin PRAD1; bcl-1 oncogene: 0.47
24-hour treatment, gene code A10k
  Ratio, cyclin-dependent kinase regulatory subunit 1 (CKS1): 0.28
24-hour treatment, gene code A11k
  Ratio, cyclin-dependent kinase regulatory subunit (CKS2): 0.40
24-hour treatment
  Ratio, fos-related antigen (FRA1): 1.99
  Ratio, epidermal growth factor receptor (EGFR): 2.51
  Ratio, placental calcium-binding protein; calvasculin: 0.50
  Ratio, proliferating cyclic nuclear antigen (PCNA); cyclin: 0.33
  Ratio, growth arrest &DNA-damage-inducible protein 153 (GADD153): 3.66
  Ratio, integrin alpha 3 (ITGA3); galactoprotein B3 (GAPB3): 2.99
  Ratio, low-affinity nerve growth factor receptor (NGF receptor; NGFR): 2.50
  Ratio, histone H4: 0.27
  Ratio, nuclear protein: 0.49
  Ratio, interleukin-1 beta precursor (IL-1; IL1B); catabolin: 1.98
  Ratio, macrophage inhibitory cytokine 1 (MIC1): 2.79
  Ratio, neutrophil gelatinase-associated lipocalin precursor (NGAL): 23.85
  Ratio, early growth response alpha (EGR alpha): 1.79
  Ratio, gravin: 8.46
  Ratio, glycyl tRNA synthetase: 2.02
24-hour treatment, gene code B02a
  Ratio, ADP/ATP carrier protein: 0.21
24-hour treatment, gene code B03m
  Ratio, 14-3-3 protein sigma; stratifin; epithelial cell marker protein 1: 0.45
24-hour treatment, gene code C01j
  Ratio, ets domain protein elk-3; NET; SRF accessory protein 2 (SAP2): 1.71
24-hour treatment, gene code C04b
  Ratio, tumor necrosis factor type 1 receptor associated protein (TRAP1): 0.73
24-hour treatment, gene code C05f
  Ratio, MCM2 DNA replication licensing factor; nuclear protein BM28: 0.23
24-hour treatment, gene code C04h
  Ratio, HHR23A; UV excision repair protein protein RAD23A: 0.36
24-hour treatment, gene code D06e
  Ratio, integrin beta 4 (ITGB4); CD104 antigen: 2.68
24-hour treatment, gene code D06m
  Ratio, cytosolic superoxide dismutase 1 (SOD1): 0.45
24-hour treatment, gene code D07b
  Ratio, high mobility group protein HMG2: 0.35
24-hour treatment, gene code D07m
  Ratio, glutathione synthetase (GSH synthetase; GSH-S): 0.34
24-hour treatment, gene code D12a
  Ratio, chromatin assembly factor 1 p48 subunit (CAF1 p48 subunit): 0.70
24-hour treatment, gene code D08h
  Ratio, N-sam; fibroblast growth factor receptor1 precursor (FGFR1): 10.39
24-hour treatment, gene code E02m
  Ratio, MHC class I truncated HLA G lymphocyte antigen: 1.36
24-hour treatment, gene code E02n
  Ratio, 78-kDa glucose regulated protein precursor (GRP 78): 2.35
24-hour treatment, gene code E04i
  Ratio, PDGF associated protein: 0.45
24-hour treatment, gene code E11l
  Ratio, CD59 glycoprotein precursor: 0.66
24-hour treatment, gene code F03e
  Ratio, fatty acid synthase: 0.34
24-hour treatment, gene code F04g
  Ratio, vimentin (VIM): 1.34
24-hour treatment, gene code F10c
  Ratio, inosine-5′-monophosphate dehydrogenase 2: 0.68
24-hour treatment, gene code F12l
  Ratio, BENE: 2.07
24-hour treatment, gene code F13j
  Ratio, elongation factor 2 (EF2): 0.55
24-hour treatment, gene code F09h
  Ratio, TRAM protein: 3.25
24-hour treatment, gene code F06d
  Ratio, L-lactate dehydrogenase H subunit (LDHB): 0.40
24-hour treatment, gene code G29
  Ratio, brain-specific tubulin alpha 1 subunit (TUBA1): 0.72
24-hour treatment, gene code G31
  Ratio, HLA class I histocompatibility antigen C-4 alpha subunit (HLAC): 1.29
24-hour treatment, gene code G45
  Ratio, 23-kDa highly basic protein; 60S ribosomal protein L13A: 0.65
8 hours
  Genes analyzed down-regulated by greater than 50%: ~0.3%
  Genes analyzed upregulated more than 2-fold: ~2%

Source: patent US7531320B2, “Modulation of β-catenin/TCF-activated transcription” (priority 2003, dated 2009)
